Data set [1] relates to U-87 MG. Description: Induction of cell cycle arrest in human U-87 MG cells assessed as accumulation of cells at G0/G1 phase at 0.5 uM incubated for 48 hrs by flow cytometry (reference value: 60.51%). The format is functional, U-87MG ATCC. In general terms: A flow cytometer gives signals particle by particle.
The subject of data set [2] is U-87 MG. The data set is described as follows: Induction of cell cycle arrest in human U-87 MG cells assessed as accumulation of cells at G0/G1 phase at 2 uM incubated for 48 hrs by flow cytometry (reference value: 60.51%). The data set is classed as functional, U-87MG ATCC.
In data set [3] the test system is U-87 MG. The data set is described as follows: Induction of cell cycle arrest in human U-87 MG cells assessed as decrease in accumulation of cells at S phase at 0.5 uM incubated for 48 hrs by flow cytometry (reference value: 30.36%). The data set is classed as functional, U-87MG ATCC. Set-up: scale not given: the % may be the effect or the level left.
For data set [4], the system named is U-87 MG. The data set is described as follows: In vitro immunoregulatory effect in IFN-gamma stimulated human U-87 MG cells co-cultured with PHA-P stimulated with human Jurkat T cell assessed as cytotoxicity by measuring cell viability at 0.5 uM incubated for 48 hrs by CCK-8 assay relative to control. The format is functional, U-87MG ATCC.
The nature of data set [5]: Tmax in Sprague-Dawley rat at 4 mg/kg, iv measured upto 72 hrs by (LC-MS)/MS analysis. The format is ADME, organism-based. The following applies: in vivo.
The nature of data set [6]: Clearance in Sprague-Dawley rat at 4 mg/kg, iv measured upto 72 hrs by (LC-MS)/MS analysis. The format is ADME, organism-based. The following applies: in vivo.
A short description of data set [7]: Cmax in Sprague-Dawley rat at 4 mg/kg, iv measured upto 72 hrs by (LC-MS)/MS analysis. The data set is classed as ADME, organism-based. To be noted: in vivo.
Data set [8] can be described thus: MRT (0 to infinity) in Sprague-Dawley rat at 20 mg/kg, po measured upto 72 hrs by (LC-MS)/MS analysis. The format is ADME, organism-based. The following applies: in vivo.
Data set [9] in a line: Volume of distribution in Sprague-Dawley rat at 20 mg/kg, po measured upto 72 hrs by (LC-MS)/MS analysis. The data set is classed as ADME, organism-based. The following applies: in vivo.
The nature of data set [10]: Clearance in Sprague-Dawley rat at 20 mg/kg, po measured upto 72 hrs by (LC-MS)/MS analysis. The data set is classed as ADME, organism-based. The following applies: in vivo.
A short description of data set [11]: Cmax in Sprague-Dawley rat at 20 mg/kg, po measured upto 72 hrs by (LC-MS)/MS analysis. To be noted: in vivo. The data set is classed as ADME, organism-based.
The nature of data set [12]: In vivo antitumor activity against […] GL261 cells xenografted in C57BL/6 mouse assessed as decrease in EGFR phosphorylation in tumor tissue at 100 mg/kg, IG treated for 21 days relative to control. Set-up: scale not given: the % may be the effect or the level left. The data set is classed as functional. The following applies: time 21 day.
Data set [13] in a line: Toxicity in C57BL/6 mouse xenografted with […] GL261 cells assessed as cell necrosis in liver at 100 mg/kg, IG treated for 21 days by hematoxylin-eosin staining based microscopy assay. The format is organism-based. The following applies: in vivo, po, 504 h, time 21 day.
Data set [14] is described as follows: Toxicity in C57BL/6 mouse xenografted with […] GL261 cells assessed as cell necrosis in kidney at 100 mg/kg, IG treated for 21 days by hematoxylin-eosin staining based microscopy assay. The data set is classed as organism-based. To be noted: in vivo, po, 504 h, time 21 day. (In general: Xenograft models place foreign cells or tissue in a host animal.)
The test system of data set [15] is Glioblastoma cell line. The data set is described as follows: Antitumor immunity against glioblastoma bearing C57BL/6 mouse model assessed as tumor infiltrating lymphocytes by measuring increase in CD3+CD8+T cells at 100 mg/kg, IG (reference value: 3.44%). The data set is classed as functional.

On to `COc1cc2ncnc(Nc3cccc(Cl)c3F)c2cc1OCCCCNCc1c(OC)cc(OCc2cccc(-c3ccccc3)c2C)cc1OC`, for which the Activity in data set [1] is given as 63.57%; in data set [2], 73.98%; in data set [3], 28.36%; in [4], 73.8%; in data set [12], approximately 50%; in data set [13], “Non-Toxic”. In addition, the Activity result in [14] is “Non-Toxic”; in [15], 14.6%. For the same compound, the Tmax in [5] is 2.4 min. The clearance in [6] is 25 mL/min/kg. In addition, the Cmax in data set [7] was determined as 326 ng/mL; in data set [11], 255 ng/mL. Moreover, the MRT inf in data set [8] was found to be 17.2 h. The Vd in [9] amounted to 123.5 L/kg. The CL/F in [10] is 107 mL/min/kg.

Usually Tmax stands for the time at which the peak concentration occurs. What is called clearance is a measure of how efficiently the substance is removed, as volume per time. For orientation: Cmax means the highest concentration seen after dosing. As usually defined, the MRT inf is the average time that molecules of a dose stay in the body. As usually defined, the CL/F is clearance divided by bioavailability, as obtained after extravascular dosing.

The values above are taken from ChEMBL document CHEMBL5506049, “Discovery of Novel Small-Molecule-Based Potential PD-L1/EGFR Dual Inhibitors with High Druggability for Glioblastoma Immunotherapy” (J Med Chem, 2024).
